In brackets after ≈: the same amount, converted by molar mass. Like-named read-outs stand apart in the source and are kept apart here.
Legend:
Format in all cases: cell-based
A. fumigatus ATCC204305 = test: Antifungal activity test, MIC by broth microdilution (CLSI M38-A2)
Method in brief: (§1)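 CLSI broth microdilution in RPMI 1640 with 2% glucose, 0.165 mol/L MOPS, pH 7.0; two-fold DMSO dilutions. MIC = lowest concentration giving 100% inhibition versus growth control.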

A. flavus ATCC204304 = test: as above
Method in brief: as §1

C. albicans ATCC90028 = test: Antifungal activity test, MIC by broth microdilution (CLSI M27-A3)
Method in brief: as §1

[1] = test system: red blood cells (5% RBC suspension); test: Test Example 2-2: in vitro hemolytic activity test (upper limit 200 μmol/L); conditions: read-out: hemolysis IC50
Description: Nephrotoxic potentials of the compounds of the present invention whose X is —N(R^F)—CO—X^1 and X^1 is the group represented by formula (III) and T is —N(R^a5)— were investigated by in vitro hemolytic activity test under the condition that the upper limit was 200 μmol/L as the required concentration to 50% of hemolysis (IC50).
Defibrinated sterile blood was centrifuged at 700×g for 3 minutes and, and the supernatant was removed for 100% of red blood cells. After the cleaning with physiological saline, the washed blood cells was suspended in the medium (Earle's balanced salt sodium, bicarbonate, 0.1 g/L L-glutamine without phenol red), and was diluted by 5% (5% RBC suspension).
The washed blood was diluted by 5% in water for injection (solution of complete hemolysis), and was used as the indication of optical density for complete hemolysis.
The compounds of the present invention solution in DMSO (several and doubling dilutions starting from 10 mmol/L), DMSO as the negative control, and Amphotericin B as the positive control were used, and each 5 μL of these was added in to a well of V-form 96 well type microplate. Finally, the maximum concentration of the compounds of the present invention solution in DMSO was 200 μmol/L by adding 245 μL of the medium or 5% RBC suspension into the well.
Two hundred fifty μL of the solution of complete hemolysis was added into another well and the microplate was incubated at 37° C. in 5% of CO2 concentration for an hour.
After the incubation, each 100 μL of supernatants in wells was collected by centrifugation of the microplate at 300×g for 5 minutes and was located on a well of flat-form 96 well type microplate. An absorbance of each supernatant was measured at wavelength of 540 nm.
Percent hemolysis was calculated by using the followed equation. The required concentration to 50% of hemolysis (IC50) was calculated based on the percent hemolysis. […] Hemolysis (%)=(CR−VM)×100÷(VL−VR) Where:
CR: Absorbance of 5% RBC suspension incubated with the compounds of the present invention solution in DMSO
VM: Absorbance of medium incubated with the compounds of the present invention solution in DMSO
VL: Absorbance of solution of complete hemolysis
VR: Absorbance of 5% RBC suspension incubated with DMSO
The “>200” in the table means above IC50 value exceeded the upper concentration 200 μmol/L.

[2] = Aspergillus fumigatus, A. fumigatus ATCC204305, broth microdilution, 35° C., 24-48 hours, 100% inhibition, read-out: MIC
[3] = Aspergillus flavus, A. flavus ATCC204304, broth microdilution, 35° C., 24-48 hours, 100% inhibition, read-out: MIC
[4] = Candida albicans, C. albicans ATCC90028, broth microdilution, 35° C., 24-48 hours, 100% inhibition, read-out: MIC
[5] = Erythrocyte, 1 h, Test Example 2-2, hemolysis method 200 (upper concentration 200 μmol/L), 5% RBC suspension, 37° C., one hour
[6] = A. fumigatus ATCC204305, broth microdilution, 35° C., 24-48 hours, 100% inhibition
[7] = A. flavus ATCC204304, broth microdilution, 35° C., 24-48 hours, 100% inhibition
[8] = C. albicans ATCC90028, broth microdilution, 35° C., 24-48 hours, 100% inhibition
[9] = Test Example 2-2, hemolysis method 200 (upper concentration 200 μmol/L), 5% RBC suspension, 37° C., one hour

CC(=O)NNC(=O)N[C@H]1[C@@H]2C[C@@H](O[C@@H]3O[C@H](C)[C@@H](O)[C@H](N)[C@@H]3O)/C=C/C=C/C=C/C=C/C=C/C=C/C=C/[C@H](C)[C@@H](O)[C@@H](C)[C@H](C)OC(=O)C[C@H](O)C[C@H](O)CC[C@@H](O)[C@H](O)C[C@H](O)C[C@](O)(C[C@@H]1O)O2 [I-19]
MIC (A. fumigatus ATCC204305; [2]): 1 µg/mL (≈ 1 µM) | MIC (A. flavus ATCC204304; [3]): 1 µg/mL (≈ 1 µM) | MIC (C. albicans ATCC90028; [4]): 0.25 µg/mL (≈ 0.251 µM) | IC50 [1, 5]: > 200 µM

C[C@@H]1[C@H](O)[C@@H](C)/C=C/C=C/C=C/C=C/C=C/C=C/C=C/[C@H](O[C@@H]2O[C@H](C)[C@@H](O)[C@H](N)[C@@H]2O)C[C@@H]2O[C@](O)(C[C@@H](O)C[C@@H](O)[C@H](O)CC[C@@H](O)C[C@@H](O)CC(=O)O[C@H]1C)C[C@H](O)[C@H]2NC(=O)NNC=O [I-43]
MIC (A. fumigatus ATCC204305; [6]): 1 µg/mL (≈ 1.02 µM) | MIC (A. flavus ATCC204304; [7]): 1 µg/mL (≈ 1.02 µM) | MIC (C. albicans ATCC90028; [8]): 0.25 µg/mL (≈ 0.255 µM) | IC50 [1, 9]: > 200 µM

C[C@@H]1[C@H](O)[C@@H](C)/C=C/C=C/C=C/C=C/C=C/C=C/C=C/[C@H](O[C@@H]2O[C@H](C)[C@@H](O)[C@H](N)[C@@H]2O)C[C@@H]2O[C@](O)(C[C@@H](O)C[C@@H](O)[C@H](O)CC[C@@H](O)C[C@@H](O)CC(=O)O[C@H]1C)C[C@H](O)[C@H]2NC(=O)NNC(=O)c1cccnc1 [I-45]
MIC (A. fumigatus ATCC204305; [6]): 1 µg/mL (≈ 0.945 µM) | MIC (A. flavus ATCC204304; [7]): 0.5 µg/mL (≈ 0.472 µM) | MIC (C. albicans ATCC90028; [8]): 0.25 µg/mL (≈ 0.236 µM) | IC50 [1, 9]: > 200 µM

C[C@@H]1[C@H](O)[C@@H](C)/C=C/C=C/C=C/C=C/C=C/C=C/C=C/[C@H](O[C@@H]2O[C@H](C)[C@@H](O)[C@H](N)[C@@H]2O)C[C@@H]2O[C@](O)(C[C@@H](O)C[C@@H](O)[C@H](O)CC[C@@H](O)C[C@@H](O)CC(=O)O[C@H]1C)C[C@H](O)[C@H]2NC(=O)NNC(N)=O [I-60]
MIC (A. fumigatus ATCC204305; Aspergillus fumigatus, ATCC204305): 0.5 µg/mL (≈ 0.502 µM) | MIC (A. flavus ATCC204304; Aspergillus flavus, ATCC204304): 0.5 µg/mL (≈ 0.502 µM) | MIC (C. albicans ATCC90028; Candida albicans, ATCC90028): 0.125 µg/mL (≈ 0.125 µM) | IC50 ([1]; Erythrocyte, 1 h): > 200 µM

C[C@@H]1[C@H](O)[C@@H](C)/C=C/C=C/C=C/C=C/C=C/C=C/C=C/[C@H](O[C@@H]2O[C@H](C)[C@@H](O)[C@H](N)[C@@H]2O)C[C@@H]2O[C@](O)(C[C@@H](O)C[C@@H](O)[C@H](O)CC[C@@H](O)C[C@@H](O)CC(=O)O[C@H]1C)C[C@H](O)[C@H]2NC(=O)NNC(=O)NO [I-218]
MIC (A. fumigatus ATCC204305; [6]): 1 µg/mL (≈ 0.988 µM) | MIC (A. flavus ATCC204304; [7]): 0.5 µg/mL (≈ 0.494 µM) | MIC (C. albicans ATCC90028; [8]): 0.25 µg/mL (≈ 0.247 µM) | IC50 [1, 9]: > 200 µM

C[C@@H]1[C@H](O)[C@@H](C)/C=C/C=C/C=C/C=C/C=C/C=C/C=C/[C@H](O[C@@H]2O[C@H](C)[C@@H](O)[C@H](N)[C@@H]2O)C[C@@H]2O[C@](O)(C[C@@H](O)C[C@@H](O)[C@H](O)CC[C@@H](O)C[C@@H](O)CC(=O)O[C@H]1C)C[C@H](O)[C@H]2NC(=O)NNC(=O)C[C@H](O)CO [I-237]
MIC (A. fumigatus ATCC204305; [6]): 1 µg/mL (≈ 0.948 µM) | MIC (A. flavus ATCC204304; [7]): 0.5 µg/mL (≈ 0.474 µM) | MIC (C. albicans ATCC90028; [8]): 0.5 µg/mL (≈ 0.474 µM) | IC50 [1, 9]: > 200 µM

C[C@@H]1[C@H](O)[C@@H](C)/C=C/C=C/C=C/C=C/C=C/C=C/C=C/[C@H](O[C@@H]2O[C@H](C)[C@@H](O)[C@H](N)[C@@H]2O)C[C@@H]2O[C@](O)(C[C@@H](O)C[C@@H](O)[C@H](O)CC[C@@H](O)C[C@@H](O)CC(=O)O[C@H]1C)C[C@H](O)[C@H]2NC(=O)NNC(=O)C(CO)CO [I-240]
MIC (A. fumigatus ATCC204305; [6]): 1 µg/mL (≈ 0.948 µM) | MIC (A. flavus ATCC204304; [7]): 0.5 µg/mL (≈ 0.474 µM) | MIC (C. albicans ATCC90028; [8]): 0.5 µg/mL (≈ 0.474 µM) | IC50 [1, 9]: > 200 µM

C[C@@H]1[C@H](O)[C@@H](C)/C=C/C=C/C=C/C=C/C=C/C=C/C=C/[C@H](O[C@@H]2O[C@H](C)[C@@H](O)[C@H](N)[C@@H]2O)C[C@@H]2O[C@](O)(C[C@@H](O)C[C@@H](O)[C@H](O)CC[C@@H](O)C[C@@H](O)CC(=O)O[C@H]1C)C[C@H](O)[C@H]2NC(=O)NNC(=O)C1(CO)CC1 [I-247]
IC50 [1, 9]: > 200 µM

C[C@@H]1[C@H](O)[C@@H](C)/C=C/C=C/C=C/C=C/C=C/C=C/C=C/[C@H](O[C@@H]2O[C@H](C)[C@@H](O)[C@H](N)[C@@H]2O)C[C@@H]2O[C@](O)(C[C@@H](O)C[C@@H](O)[C@H](O)CC[C@@H](O)C[C@@H](O)CC(=O)O[C@H]1C)C[C@H](O)[C@H]2NC(=O)NNC(=O)C[C@@H](O)C(=O)O [I-253]
IC50 [1, 9]: > 200 µM

C[C@@H]1[C@H](O)[C@@H](C)/C=C/C=C/C=C/C=C/C=C/C=C/C=C/[C@H](O[C@@H]2O[C@H](C)[C@@H](O)[C@H](N)[C@@H]2O)C[C@@H]2O[C@](O)(C[C@@H](O)C[C@@H](O)[C@H](O)CC[C@@H](O)C[C@@H](O)CC(=O)O[C@H]1C)C[C@H](O)[C@H]2NC(=O)NNC(=O)C1(C(N)=O)CC1 [I-256]
IC50 [1, 9]: > 200 µM

C[C@@H]1[C@H](O)[C@@H](C)/C=C/C=C/C=C/C=C/C=C/C=C/C=C/[C@H](O[C@@H]2O[C@H](C)[C@@H](O)[C@H](N)[C@@H]2O)C[C@@H]2O[C@](O)(C[C@@H](O)C[C@@H](O)[C@H](O)CC[C@@H](O)C[C@@H](O)CC(=O)O[C@H]1C)C[C@H](O)[C@H]2NC(=O)NNC(=O)C1(O)CC1 [I-257]
IC50 [1, 9]: > 200 µM

C[C@@H]1[C@H](O)[C@@H](C)/C=C/C=C/C=C/C=C/C=C/C=C/C=C/[C@H](O[C@@H]2O[C@H](C)[C@@H](O)[C@H](N)[C@@H]2O)C[C@@H]2O[C@](O)(C[C@@H](O)C[C@@H](O)[C@H](O)CC[C@@H](O)C[C@@H](O)CC(=O)O[C@H]1C)C[C@H](O)[C@H]2NC(=O)NNC(=O)CCC(=O)O [I-261]
MIC (A. fumigatus ATCC204305; [6]): 1 µg/mL (≈ 0.949 µM) | MIC (A. flavus ATCC204304; [7]): 0.5 µg/mL (≈ 0.475 µM) | MIC (C. albicans ATCC90028; [8]): 0.5 µg/mL (≈ 0.475 µM) | IC50 [1, 9]: > 200 µM

C[C@@H]1[C@H](O)[C@@H](C)/C=C/C=C/C=C/C=C/C=C/C=C/C=C/[C@H](O[C@@H]2O[C@H](C)[C@@H](O)[C@H](N)[C@@H]2O)C[C@@H]2O[C@](O)(C[C@@H](O)C[C@@H](O)[C@H](O)CC[C@@H](O)C[C@@H](O)CC(=O)O[C@H]1C)C[C@H](O)[C@H]2NC(=O)NNC(=O)C1(S(C)(=O)=O)CC1 [I-263]
IC50 ([1]; Erythrocyte, 1 h): > 200 µM

C[C@@H]1[C@H](O)[C@@H](C)/C=C/C=C/C=C/C=C/C=C/C=C/C=C/[C@H](O[C@@H]2O[C@H](C)[C@@H](O)[C@H](N)[C@@H]2O)C[C@@H]2O[C@](O)(C[C@@H](O)C[C@@H](O)[C@H](O)CC[C@@H](O)C[C@@H](O)CC(=O)O[C@H]1C)C[C@H](O)[C@H]2NC(=O)NNC(CO)CO [I-272]
MIC (A. fumigatus ATCC204305; [2]): 0.5 µg/mL (≈ 0.487 µM) | MIC (A. flavus ATCC204304; [3]): 0.5 µg/mL (≈ 0.487 µM) | MIC (C. albicans ATCC90028; [4]): 0.25 µg/mL (≈ 0.243 µM) | IC50 [1, 5]: > 200 µM

C[C@@H]1[C@H](O)[C@@H](C)/C=C/C=C/C=C/C=C/C=C/C=C/C=C/[C@H](O[C@@H]2O[C@H](C)[C@@H](O)[C@H](N)[C@@H]2O)C[C@@H]2O[C@](O)(C[C@@H](O)C[C@@H](O)[C@H](O)CC[C@@H](O)C[C@@H](O)CC(=O)O[C@H]1C)C[C@H](O)[C@H]2NC(=O)NNC[C@@H](O)C(=O)O [I-310]
MIC (A. fumigatus ATCC204305; [2]): 1 µg/mL (≈ 0.96 µM) | MIC (A. flavus ATCC204304; [3]): 0.5 µg/mL (≈ 0.48 µM) | MIC (C. albicans ATCC90028; [4]): 0.5 µg/mL (≈ 0.48 µM) | IC50 [1, 5]: > 200 µM

— patent publication US10696707B2, “Polyene macrolide derivative” (Shionogi & Co., Ltd., priority 2014, dated 2020)
